Data on 14 molecules can be found in patent US5516783A, “4-(1H-2-methylimidazo[4,5-c]pyridinylmethyl)phenylsulphonamide derivatives as antagonist of PAF” (British Biotech Pharmaceuticals Limited, priority 1992, dated 1996).

pIC50: −log10 of the molar value.

For the first assay, the system named is platelet activating factor. Nature of the assay: antagonism of platelet activating factor (statement in words).
Conditions: not given
As to `Cc1nc2ccncc2n1Cc1ccc(S(=O)(=O)N(C)Cc2cccs2)cc1` [N-methyl-N-4-(3 H-2-methylimidazo[4,5-c]pyridinylmethyl)phenylsulphonyl-2-thienylmethylamine], the “antagonism of platelet activating factor (in words)” value was “are antagonists of platelet activating factor”.

Take `Cc1nc2ccn(Cc3ccc(S(=O)(=O)N(C)Cc4cccs4)cc3)cc-2n1` [N-methyl-N-4-(5H-2-methylimidazo[4,5-c]pyridinylmethyl)phenylsulphonyl-2-thienylmethylamine]: the “antagonism of platelet activating factor (in words)” value was “are antagonists of platelet activating factor”.

For a further assay, the system named is PAF-induced hypotension. Nature of the assay: reversal of hypotension caused by an infusion of PAF in rats. Format: in vivo, Male Sprague-Dawley rats. The following applies: iv; i.v. bolus; PAF 100 ng/kg/min infused i.v.; anaesthetised rat; read-out: inhibition of PAF-induced hypotension in the rat, ED50 (dose to cause a 50% reversal of the hypotensive PAF response). The procedure: Male Sprague-Dawley rats (300-350 g) were anaesthetised with a mixture of sodium pentobarbitone, 22.5 mg/kg and thiopental 62.5 mg/kg. Through a midline incision in the neck, the trachea was cannulated and the animals breathed spontaneously. A carotid artery was cannulated for the measurement of blood pressure and this signal was used to trigger a rate meter to measure heart rate. Both jugular veins were cannulated: one for the infusion of PAF and the other for the bolus administration of test compounds.
PAF, 100 ng/kg/min was infused i.v. until a sustained fall in mean blood pressure of 50 mmHg was achieved. […] The peak of this reversal was measured and the dose to cause a 50% reversal of the hypotensive PAF response (ED50) calculated by straight line interpolation and the results are presented in Table 2.
On to `CN(C(=O)c1ccc(Cn2cnc3cnccc32)cc1)C1CCCCC1` [Comparative Example, N-Cyclohexyl-N-methyl-4-(1H-imidazo[4,5-c]pyridinylmethyl)benzamide, reference compound], for which the 50% effective dose (ED50) (usually the midpoint of the dose-response relation) was 150 µg/kg. The same measure, in the same setting: with `CCCCCCCCCCCCCCCCCC(=O)OC[C@H](CC(C)C)N(C)S(=O)(=O)c1ccc(Cn2c(C)nc3cnccc32)cc1` [Example 44, O-Octadecanoyl-N-methyl-N-4-(1H-2-methylimidazo[4,5-c]pyridinylmethyl)phenylsulphonyl-L-leucinol] the figure was 4.6 µg/kg; with `CC(=O)Oc1ccccc1C(=O)OC[C@H](CC(C)C)N(C)S(=O)(=O)c1ccc(Cn2c(C)nc3cnccc32)cc1` [Example 49, O-2-Acetoxybenzoyl-N-methyl-N-4-(1H-2-methylimidazo[4,5-c]pyridinylmethyl)phenylsulphonyl-L-leucinol], 2.2 µg/kg. The same measure, in the same setting: with `COc1ccc(SCC(=O)OC[C@H](CC(C)C)N(C)S(=O)(=O)c2ccc(Cn3c(C)nc4cnccc43)cc2)cc1OC` [Example 78, O-2-(3,4-Dimethoxyphenylmercapto)ethanoyl-N-methyl-N-4-(1H-2-methylimidazo[4,5-c]pyridinylmethyl)phenylsulphonyl-L-leucinol] the figure was 5.8 µg/kg; with `Cc1nc2cnccc2n1Cc1ccc(S(=O)(=O)N(C)[C@H](COC(=O)NCc2ccccn2)CC(C)C)cc1` [Example 108, O-Pyridin-2-ylmethylaminocarbonyl-N-methyl-N-4-(1H-2-methylimidazo[4,5-c]pyridinylmethyl)phenylsulphonyl-L-leucinol], 6.6 µg/kg.

`CCc1noc([C@H](CC(C)C)N(C)S(=O)(=O)c2ccc(Cn3c(C)nc4cnccc43)cc2)n1` [Example 156, N-Methyl-N-4-(1H-2-methylimidazo[4,5-c]pyridinylmethyl)phenylsulphonyl-1-(3-ethyl-1,2,4-oxadiazol-5-yl)-3-methylbutylamine]: the ED50 came out at 0.6 µg/kg.

The target of a further assay is T1, platelet activating factor (PAF) receptor (human platelet plasma membrane) (Homo sapiens, UniProt P25105).
T1 construct: Platelet concentrates were obtained from a hospital blood bank; from tissue; host or cells: human platelets (hospital blood bank concentrates), lysed plasma membrane preparation
T1 sequence (P25105 whole entry): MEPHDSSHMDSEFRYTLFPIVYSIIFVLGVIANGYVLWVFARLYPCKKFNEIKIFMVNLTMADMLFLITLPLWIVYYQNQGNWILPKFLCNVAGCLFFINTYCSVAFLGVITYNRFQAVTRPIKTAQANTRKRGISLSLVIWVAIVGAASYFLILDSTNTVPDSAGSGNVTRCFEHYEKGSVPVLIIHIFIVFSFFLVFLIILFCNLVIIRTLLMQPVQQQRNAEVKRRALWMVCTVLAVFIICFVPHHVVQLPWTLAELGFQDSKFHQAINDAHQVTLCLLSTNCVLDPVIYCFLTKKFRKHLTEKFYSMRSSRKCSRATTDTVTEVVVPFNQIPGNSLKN
The experiment in a line: inhibition of [^3 H]-PAF receptor binding to human platelet plasma membrane. Particulars: [^3 H]-PAF 0.5 nM, 0° C., 1 hour, pH 7.0. The procedure: The inhibition of [^3 H]-PAF binding to human platelet plasma membrane by compounds of general formula I was determined by isotopic labelling and filtration techniques. Platelet concentrates were obtained from a hospital blood bank. These platelet concentrates (500-2500 ml.) were centrifuged at 800 rpm for 10 minutes in a SORVALL RC3B centrifuge to remove the red blood cells present. (The word SORVALL is a trade mark.) The supernatant was subsequently centrifuged at 3,000 rpm in a SORVALL RC3B centrifuge to pellet the platelets present. The platelet rich pellets were resuspended in a minimum volume of buffer (150 mM NaCl, 10 mM Tris, 2 mM EDTA, pH 7.5) and layered onto Ficoll-Paque gradients, 9 ml platelet concentrate to 2 ml Ficoll, and centrifuged at 1,900 rpm for 15 minutes in a SORVALL RT6000 centrifuge. This step removes the residual red blood cells and other nonspecific material such as lymphocytes from the preparation. The platelets which form a band between the plasma and the Ficoll were removed, resuspended in the above buffer and centrifuged at 3,000 rpm for 10 minutes in a SORVALL RT6000 centrifuge. The pelleted platelets were resuspended in buffer (10 mM Tris, 5 mM MgCl2, 2 mM EDTA, pH 7.0), snap freezed in liquid N2 and allowed to thaw slowly at room temperature in order to lyse the platelets. The latter step was repeated at least 3 times to ensure proper lysis. The lysed platelets were centrifuged at 3,000 rpm for 10 minutes in a SORVALL RT6000 centrifuge and resuspended in buffer. The latter step was repeated twice in order to remove any cytoplasmic proteins which may hydrolyse the platelet activating factor (PAF) receptor. The prepared platelet membranes may be stored at -70° C. After thawing the prepared membranes were centrifuged in a SORVALL RT6000 at 3,000 rpm for 10 minutes and resuspended in assay buffer.
The assay was conducted by preparing a series of Tris-buffered solutions of the selected antagonist of predetermined concentrations. Each of these solutions contained [^3 H]-PAF (0.5 nM; 1-O-[^3 H]octadecyl-2-acetyl-sn-glycero-3-phosphoryl choline with a specific activity of 132 Ci/mmol), unlabelled PAF (1000 nM), a known amount of the test antagonist, and a sufficient amount of Tris-buffer solution (10 mM Tris, 5 mM MgCl2, pH 7.0, 0.25% BSA) to make the final volume 1 ml. Incubation was initiated by the addition of 100 μg of the isolated membrane fraction to each of the above solutions at 0° C. Two control samples, one (C1 ) which contained all the ingredients described above except the antagonist and the other (C2) contains C1 plus a 1000-fold excess of unlabelled PAF, were also prepared and incubated simultaneously with the test samples.
After 1 hour incubation, each solution was filtered rapidly under vacuo through a WHATMAN GF/C glass fibre filter in order to separate unbound PAF from bound PAF. (The word WHATMAN is a trade mark.) The residue in each case was rapidly washed 4 times with 5 ml cold (4° C.) Tris-buffer solution. Each washed residue was dried under vacuum on a sampling manifold and placed into vials containing 20 ml of OPTIPHASE MP scintillation fluid and the radioactivity counted in a liquid scintillation counter. (The word OPTIPHASE is a trade mark.) Defining the counts for total binding with antagonist from a test sample as "TBA"; the counts for total binding from the control sample C1 as "TB"; and the counts for nonspecific binding from the control sample C2 as "NSB", the percent inhibition of each test antagonist can be determined by the following equation:
Inhibition=[(TB-TBA)/SB]×100
where the specific binding SB=TB-NSB
Table 1 lists results from this assay for inhibition of [^3 H]-PAF receptor binding for illustrative examples of the compounds of this invention. […]
As to `Cc1nc2cnccc2n1Cc1ccc(S(=O)(=O)N(C)[C@H](CO)CC(C)C)cc1` [Example 1, N-Methyl-N-4-(1H-2-methylimidazo[4,5-c]pyridinylmethyl)phenylsulphonyl-L-leucinol], the pIC50 (usually −log10 of the IC50, conventionally taken in molar units) was 8.15.

On to `CCCCCCCCCCCCCCCCCC(=O)OC[C@H](CC(C)C)N(C)S(=O)(=O)c1ccc(Cn2c(C)nc3cnccc32)cc1` [Example 44, O-Octadecanoyl-N-methyl-N-4-(1H-2-methylimidazo[4,5-c]pyridinylmethyl)phenylsulphonyl-L-leucinol], for which the pIC50 was 9.00. On the same count and under the same terms, with `CCC(=O)OC[C@H](CC(C)C)N(C)S(=O)(=O)c1ccc(Cn2c(C)nc3cnccc32)cc1` [Example 45, O-Propanoyl-N-methyl-N-4-(1H-2-methylimidazo[4,5-c]pyridinylmethyl)phenylsulphonyl-L-leucinol] the figure was 9.30. In turn, `CCOC(=O)C(=O)OC[C@H](CC(C)C)N(C)S(=O)(=O)c1ccc(Cn2c(C)nc3cnccc32)cc1` [Example 47, O-Ethyloxaloyl-N-methyl-N-4-(1H-2-methylimidazo[4,5-c]pyridinylmethyl)phenylsulphonyl-L-leucinol] showed a negative-log IC50 (pIC50) of 8.70. The same measure, in the same setting: under `CC(=O)Oc1ccccc1C(=O)OC[C@H](CC(C)C)N(C)S(=O)(=O)c1ccc(Cn2c(C)nc3cnccc32)cc1` [Example 49, O-2-Acetoxybenzoyl-N-methyl-N-4-(1H-2-methylimidazo[4,5-c]pyridinylmethyl)phenylsulphonyl-L-leucinol] stands 8.70; under `CC1=C(/C=C/C(C)=C/C=C/C(C)=C/C(=O)OC[C@H](CC(C)C)N(C)S(=O)(=O)c2ccc(Cn3c(C)nc4cnccc43)cc2)C(C)(C)CCC1` [Example 79, O-Retinoyl-N-methyl-N-4-(1H-2-methylimidazo[4,5-c]pyridinylmethyl)phenylsulphonyl-L-leucinol], 8.40. Still for that read-out and setting: with `CCCCCCCCCCCCCCCCCCNC(=O)OC[C@H](CC(C)C)N(C)S(=O)(=O)c1ccc(Cn2c(C)nc3cnccc32)cc1` [Example 109, O-Octadecylaminocarbonyl-N-methyl-N-4-(1H-2-methylimidazo[4,5-c]pyridinylmethyl)phenylsulphonyl-L-leucinol] the figure was 8.52; with `Cc1noc([C@H](CC(C)C)N(C)S(=O)(=O)c2ccc(Cn3c(C)nc4cnccc43)cc2)n1` [Example 155, N-Methyl-N-4-(1H-2-methylimidazo[4,5-c]pyridinylmethyl)phenylsulphonyl-1-(3-methyl-1,2,4-oxadiazol-5-yl)-3-methylbutylamine], 8.70.
